Results on 17 compounds are retold here after EP2601188B1, “HEPATITIS C VIRUS INHIBITORS” (Bristol-Myers Squibb Company, priority 2010, dated 2012).

In the assay the test system is HCV 1b genotype. The assay can be described thus: HCV Replicon assay (HCV-neo replicon cells, wild-type). Type of assay: cell-based. The settings on record: Hepatitis C virus, HCV 1b genotype replicon. The protocol:
An HCV Replicon assay was utilized in the present disclosure, and was prepared, conducted and validated as described in commonly owned PCT/US2006/022197 and in O'Boyle et. al. Antimicrob Agents Chemother. 2005 Apr;49(4):1346-53. Assay methods incorporating luciferase reporters have also been used as described (Apath.com).
HCV-neo replicon cells and replicon cells containing mutations in the NS5A region were used to test the currently described family of compounds. The compounds were determined to have more than 10-fold less inhibitory activity on cells containing mutations than wild-type cells. Thus, the compounds of the present disclosure can be effective in inhibiting the function of the HCV NS5A protein and are understood to be as effective in combinations as previously described in application PCT/US2006/022197 and commonly owned WO/O4014852. Further, the compounds of the present disclosure can be effective against the HCV 1b genotype. It should also be understood that the compounds of the present disclosure can inhibit multiple genotypes of HCV. […] In one embodiment, compounds of the present disclosure are inhibitory versus 1a, 1b, 2a, 2b, 3a, 4a, and 5a genotypes.
(In antiviral work, replicon cells carry a viral genome segment that copies itself.)

The mark [1] stands for this setting: class symbols, read-out: EC50 Range.
Setting [2] is: values given in pM, read-out: EC50.

Read-outs that look alike come from different tables or passages of the source.

As to `COC(=O)N[C@H](C(=O)N1CCC[C@H]1c1nc[nH]c1-c1cccc(C#Cc2ccc3[nH]c([C@@H]4CCCN4C(=O)[C@H](NC(=O)OC)C(C)C)nc3c2)c1)C(C)C` (stereo in doubt) [J.281, methyl ((1S)-1-(((2S)-2-(5-(3-((2-((2S)-1-((2R)-2-((methoxycarbonyl)amino)-3-methylbutanoyl)-2-pyrrolidinyl)-1H-benzimidazol-5-yl)ethynyl)phenyl)-1H-imidazol-4-yl)-1-pyrrolidinyl)carbonyl)-2-methylpropyl)carbamate], the EC50 (usually the concentration needed to bring the measured effect to its halfway point) runs as follows: under setting [1], 4.57 to 99 nM; (values in nM, read-out: EC50) 7 nM.

For the compound `COC(=O)N[C@H](C(=O)N1[C@@H]2C[C@@H]2C[C@H]1c1nc2c([nH]1)-c1ccc(-c3ccc4[nH]c([C@@H]5C[C@H]6C[C@H]6N5C(=O)[C@@H](NC(=O)OC)C(C)C)nc4c3)cc1CCC2)C(C)C` [J.24, methyl ((1S)-1-(((1R,3S,5R)-3-(8-(2-((1R,3S,5R)-2-((2S)-2-((methoxycarbonyl)amino)-3-methylbutanoyl)-2-azabicyclo[3.1.0]hex-3-yl)-1H-benzimidazol-5-yl)-1,4,5,6-tetrahydrobenzo[3,4]cyclohepta[1,2-d]imidazol-2-yl)-2-azabicyclo[3.1.0]hex-2-yl)carbonyl)-2-methylpropyl)carbamate], under setting [2], the EC50 was 0.01 nM. Still for that read-out and setting: the same measure for `COC(=O)N[C@H](C(=O)N1CCC[C@H]1c1nc(-c2ccc(-c3ccc(-c4ccc5[nH]c([C@@H]6CCCN6C(=O)[C@@H](NC(=O)OC)C(C)C)nc5c4)cc3)cc2)c[nH]1)C(C)C` [J.26, methyl ((1S)-1-(((2S)-2-(5-(4'-(2-((2S)-1-((2S)-2-((methoxycarbonyl)amino)-3-methylbutanoyl)-2-pyrrolidinyl)-1H-imidazol-4-yl)-4-biphenylyl)-1H-benzimidazol-2-yl)-1-pyrrolidinyl)carbonyl)-2-methylpropyl)carbamate]: 0.005 nM; for `COC(=O)N[C@@H](C(=O)N1CCC[C@H]1c1nc2cc(-c3ccc(-c4ccc5c(ccc6nc([C@@H]7CCCN7C(=O)[C@H](NC(=O)OC)c7ccccc7)[nH]c65)c4)cc3)ccc2[nH]1)c1ccccc1` [J.27c, methyl ((1R)-2-((2S)-2-(7-(4-(2-((2S)-1-((2R)-2-((methoxycarbonyl)amino)-2-phenylacetyl)-2-pyrrolidinyl)-1H-benzimidazol-5-yl)phenyl)-1H-naphtho[1,2-d]imidazol-2-yl)-1-pyrrolidinyl)-2-oxo-1-phenylethyl)carbamate]: 0.003 nM; for `COC(=O)N[C@H](C(=O)N1CCC[C@H]1c1nc2c(F)cc(C#Cc3ccc4c(ccc5nc([C@@H]6CCCN6C(=O)[C@@H](NC(=O)OC)C(C)C)[nH]c54)c3)cc2[nH]1)C(C)C` [J.28h, methyl ((1S)-1-(((2S)-2-(4-fluoro-6-((2-((2S)-1-((2S)-2-((methoxycarbonyl)amino)-3-methylbutanoyl)-2-pyrrolidinyl)-1H-naphtho [1,2-d]imidazol-7-yl)ethynyl)-1H-benzimidazol-2-yl)-1-pyrrolidinyl)carbonyl)-2-methylpropyl)carbamate]: 0.12 nM.

`COC(=O)NC(C(=O)N1[C@@H](C)CC[C@H]1c1nc2ccc3cc(C#Cc4ccc5[nH]c([C@@H]6CC[C@H](C)N6C(=O)[C@@H](NC(=O)OC)C(C)C)nc5c4)ccc3c2[nH]1)C1CCOCC1` (stereo partly drawn) [J.28i.4a, methyl ((1S)-1-(((2S,5S)-2-(5-((2-((2S,5S)-1-(((methoxycarbonyl)amino)(tetrahydro-2H-pyran-4-yl)acetyl)-5-methyl-2-pyrrolidinyl)-1H-naphtho[1,2-d]imidazol-7-yl)ethynyl)-1H-benzimidazol-2-yl)-5-methyl-1-pyrrolidinyl)carbonyl)-2-methylpropyl)carbamate]: under “values in nM, read-out: EC50”, the EC50 turned out to be 3.8 nM. On to `CCN(CC)[C@@H](C(=O)N1CCC[C@H]1c1nc2cc(C#Cc3cccc(-c4[nH]cnc4[C@@H]4CCCN4C(=O)[C@@H](c4ccccc4)N(CC)CC)c3)ccc2[nH]1)c1ccccc1` [J.28m, (1R)-2-((2S)-2-(5-(3-((2-((2S)-1-((2R)-2-(diethylamino)-2-phenylacetyl)-2-pyrrolidinyl)-1H-benzimidazol-5-yl)ethynyl)phenyl)-1H-imidazol-4-yl)-1-pyrrolidinyl)-N,N-diethyl-2-oxo-1-phenylethanamine], for which the EC50 under setting [1] was 4.57 to 99 nM and the EC50 (values in nM, read-out: EC50) was determined as 55.7 nM. On to `COc1cccc2c(C(=O)N3CCC[C@H]3C(=O)Nc3cccc(-c4ncc(-c5ccc6[nH]c([C@@H]7CCCN7C(=O)c7nc(Cl)cc8c(OC)cccc78)nc6c5)o4)c3)nc(Cl)cc12` [J.48d, 1-((3-chloro-5-methoxy-1-isoquinolinyl)carbonyl)-N-(3-(5-(2-((2S)-1-((3-chloro-5-methoxy-1-isoquinolinyl)carbonyl)-2-pyrrolidinyl)-1H-benzimidazol-5-yl)-1,3-oxazol-2-yl)phenyl)-L-prolinamide], for which the EC50 is 100 to 999 nM under setting [1] and 147 nM (values in nM, read-out: EC50). With `O=C(Nc1ccc(-c2ncc(-c3ccc4[nH]c([C@@H]5CCCN5C(=O)[C@H](O)c5ccccc5)nc4c3)o2)cc1)[C@@H]1CCCN1C(=O)[C@H](O)c1ccccc1` [J.50, 1-((2R)-2-hydroxy-2-phenylacetyl)-N-(4-(5-(2-((2S)-1-((2R)-2-hydroxy-2-phenylacetyl)-2-pyrrolidinyl)-1H-benzimidazol-5-yl)-1,3-oxazol-2-yl)phenyl)-L-prolinamide], the EC50 under setting [1] was 4.57 to 99 nM. Turning to `COc1cccc2c(C(=O)N3CCC[C@H]3C(=O)Nc3ccc(-c4ncc(-c5ccc6[nH]c([C@@H]7CCCN7C(=O)c7nc(Cl)cc8c(OC)cccc78)nc6c5)o4)cc3)nc(Cl)cc12` [J.50c, 1-((3-chloro-5-methoxy-1-isoquinolinyl)carbonyl)-N-(4-(5-(2-((2S)-1-((3-chloro-5-methoxy-1-isoquinolinyl)carbonyl)-2-pyrrolidinyl)-1H-benzimidazol-5-yl)-1,3-oxazol-2-yl)phenyl)-L-prolinamide], the EC50 is 1000 to 10000 nM under setting [1] and over 10000 nM (value given in µM, read-out: EC50). With `O=C(Nc1ccc(-c2ncc(-c3ccc4[nH]c([C@@H]5CCCN5C(=O)[C@H](O)c5ccccc5)nc4c3)o2)cc1F)[C@@H]1CCCN1C(=O)[C@H](O)c1ccccc1` [J.51, N-(2-fluoro-4-(5-(2-((2S)-1-((2R)-2-hydroxy-2-phenylacetyl)-2-pyrrolidinyl)-1H-benzimidazol-5-yl)-1,3-oxazol-2-yl)phenyl)-1-((2R)-2-hydroxy-2-phenylacetyl)-L-prolinamide], under setting [1], the EC50 fell in the range of 4.57 to 99 nM. Consider `COc1cccc2c(C(=O)N3CCC[C@H]3C(=O)Nc3ccc(-c4ncc(-c5ccc6[nH]c([C@@H]7CCCN7C(=O)c7nc(Cl)cc8c(OC)cccc78)nc6c5)o4)cc3F)nc(Cl)cc12` [J.51b, 1-((3-chloro-5-methoxy-1-isoquinolinyl)carbonyl)-N-(4-(5-(2-((2S)-1-((3-chloro-5-methoxy-1-isoquinolinyl)carbonyl)-2-pyrrolidinyl)-1H-benzimidazol-5-yl)-1,3-oxazol-2-yl)-2-fluorophenyl)-L-prolinamide], for which, under setting [1], the EC50 was in the range of 100 to 999 nM.

With `Cc1ccc(-c2ncc(-c3ccc4[nH]c([C@@H]5CCCN5C(=O)[C@@H](c5ccccc5)N(C)C)nc4c3)o2)cc1NC(=O)[C@@H]1CCCN1C(=O)CN(C)C` [J.52a, N,N-dimethylglycyl-N-(5-(5-(2-((2S)-1-((2R)-2-(dimethylamino)-2-phenylacetyl)-2-pyrrolidinyl)-1H-benzimidazol-5-yl)-1,3-oxazol-2-yl)-2-methylphenyl)-L-prolinamide], the EC50 under setting [1] lay in the range of 4.57 to 99 nM. The same measure, in the same setting: then `O=C(Nc1cccc(-c2ncc(-c3ccc4[nH]c([C@@H]5CCCN5C(=O)CC5CC5)nc4c3)o2)c1)[C@@H]1CCCN1C(=O)CC1CC1` [J.53, 1-(cyclopropylacetyl)-N-(3-(5-(2-((2S)-1-(cyclopropylacetyl)-2-pyrrolidinyl)-1H-benzimidazol-5-yl)-1,3-oxazol-2-yl)phenyl)-L-prolinamide], with 100 to 999 nM; and `O=C(Nc1cccc(-c2cnc(-c3ccc4[nH]c([C@@H]5CCCN5C(=O)CC5CC5)nc4c3)o2)c1)[C@@H]1CCCN1C(=O)CC1CC1` [J.53a, 1-(cyclopropylacetyl)-N-(3-(2-(2-((2S)-1-(cyclopropylacetyl)-2-pyrrolidinyl)-1H-benzimidazol-5-yl)-1,3-oxazol-5-yl)phenyl)-L-prolinamide], with 1000 to 10000 nM. Still for that read-out and setting: the same measure for `COC(=O)N[C@@H](C(=O)N1CCC[C@H]1c1nc(C#Cc2ccc(-c3ccc4[nH]c([C@@H]5CCCN5C(=O)[C@H](NC(=O)OC)C(C)C)nc4c3)cc2)c[nH]1)C(C)C` [JB.8.1, methyl ((1R)-1-(((2S)-2-(4-((4-(2-((2S)-1-((2R)-2-((methoxycarbonyl)amino)-3-methylbutanoyl)-2-pyrrolidinyl)-1H-benzimidazol-5-yl)phenyl)ethynyl)-1H-imidazol-2-yl)-1-pyrrolidinyl)carbonyl)-2-methylpropyl)carbamate]: 100 to 999 nM. In the case of `O=C([C@@H](c1ccccc1)N1CCCCC1)N1CCC[C@H]1c1nc(C#Cc2ccc(-c3ccc4[nH]c([C@@H]5CCCN5C(=O)[C@@H](c5ccccc5)N5CCCCC5)nc4c3)cc2)c[nH]1` [JB.12, 2-((2S)-1-((2R)-2-phenyl-2-(1-piperidinyl)acetyl)-2-pyrrolidinyl)-5-(4-((2-((2S)-1-((2R)-2-phenyl-2-(1-piperidinyl)acetyl)-2-pyrrolidinyl)-1H-imidazol-4-yl)ethynyl)phenyl)-1H-benzimidazole], under setting [2], the EC50 came to 0.0652 nM.
